# Patent US10934302B1, “SHP2 phosphatase inhibitors and methods of use thereof” (Relay Therapeutics, Inc., priority 2018, dated 2021)
# Target: SHP2 (Homo sapiens (Human), UniProt Q06124)
# Assay: SHP2 allosteric inhibition assay (DiFMUP prompt fluorescence)
# Assay type: biochemical
# Settings: 0.25 nM SHP2 activated with 0.5 μM peptide IRS1_pY1172(dPEG8)pY1222; substrate DiFMUP
row,IC50 [µM],SMILES
1,1 to 10,"Cc1nc2c(C#N)n[nH]c2nc1N1CCC2(CC1)Cc1ccccc1[C@H]2N [Example 163, 6-[(3S)-3-amino-1,3-dihydrospiro[indene-2,4′-piperidin]-1′-yl]-5-methyl-1H-pyrazolo[3,4-b]pyrazine-3-carbonitrile]"
2,≤ 0.05,"Cc1nc2c(C3=CCOCC3)n[nH]c2nc1N1CCC2(CC1)Cc1ccccc1[C@H]2N [Example 167, (3S)-1′-[3-(3,6-dihydro-2H-pyran-4-yl)-5-methyl-1H-pyrazolo[3,4-b]pyrazin-6-yl]-1,3-dihydrospiro[indene-2,4′-piperidin]-3-amine]"
3,1 to 10,"N[C@@H]1c2ccccc2CC12CCN(c1cn3ccnc3cn1)CC2 [Example 169, (3S)-1′-{imidazo[1,2-a]pyrazin-6-yl}-1,3-dihydrospiro[indene-2,4′-piperidin]-3-amine]"
4,≤ 0.05,"N[C@@H]1c2ccccc2CC12CCN(c1cnc(OCC3CC3)cn1)CC2 [Example 171, (3S)-1′-[5-(cyclopropylmethoxy)pyrazin-2-yl]-1,3-dihydrospiro[indene-2,4′-piperidin]-3-amine]"
5,≤ 0.05,"N[C@H]1c2ccccc2C[C@]12CC=C(c1cnc3c(N4CCCc5ncccc54)n[nH]c3n1)CC2 [Example 174, (1R,1′R)-4-(3-(3,4-dihydro-1,5-naphthyridin-1(2H)-yl)-1H-pyrazolo[3,4-b]pyrazin-6-yl)-1′,3′-dihydrospiro[cyclohex[3]ene-1,2′-inden]-1′-amine]"
6,1 to 10,"N[C@@H]1c2ccccc2C[C@]12CC=C(c1cnc3c(N4CCCc5ncccc54)n[nH]c3n1)CC2 [Example 175, (1S,1'S)-4-(3-(3,4-dihydro-1,5-naphthyridin-1(2H)-yl)-1H-pyrazolo[3,4-b]pyrazin-6-yl)-1′,3′-dihydrospiro[cyclohex[3]ene-1,2′-inden]-1′-amine]"
7,≤ 0.05,Nc1nccc(Sc2cnc(N3CCC4(CC3)Oc3ccccc3[C@H]4N)cn2)c1Cl [Example 177]
8,> 10,Cn1c(N2CCC3(CC2)Cc2ccccc2[C@H]3N)nc2[nH]nc(Sc3cccc(Cl)c3Cl)c2c1=O [Example 178]
9,≤ 0.05,N[C@@H]1c2ccccc2CC12CCN(c1cnc3ccccc3n1)CC2 [Example 179]
10,1 to 10,N[C@@H]1c2ccccc2CC12CCN(c1nccn3ccnc13)CC2 [Example 180]
11,1 to 10,Cn1ncc2c(N3CCC4(CC3)Cc3ccccc3[C@H]4N)ncnc21 [Example 181]
12,> 10,Cn1cc2c(N3CCC4(CC3)Cc3ccccc3[C@H]4N)ncnc2n1 [Example 182]
13,> 10,Cn1cnc2ccnc(N3CCC4(CC3)Cc3ccccc3[C@H]4N)c21 [Example 183]
14,0.05 to 1,Cn1cnc2c(N3CCC4(CC3)Cc3ccccc3[C@H]4N)ncnc21 [Example 184]
15,≤ 0.05,"Nc1nccc(Oc2cnc(N3CCC4(CC3)Oc3ccccc3[C@H]4N)cn2)c1Cl [Example 187, (3R)-1′-{5-[(2-amino-3-chloropyridin-4-yl)oxy]pyrazin-2-yl}-3H-spiro[1-benzofuran-2,4′-piperidin]-3-amine]"
16,1 to 10,"N[C@@H]1c2ccccc2CC12CCN(c1cnc3c(ccn3-c3cccc4ncccc34)n1)CC2 [Example 192, (3S)-1′-[5-(quinolin-5-yl)-5H-pyrrolo[2,3-b]pyrazin-2-yl]-1,3-dihydrospiro[indene-2,4′-piperidin]-3-amine]"
17,≤ 0.05,"Cc1nc2c(ccn2C2=CCOCC2)nc1N1CCC2(CC1)Cc1ccccc1[C@H]2N [Example 193, (3S)-1′-[5-(3,6-dihydro-2H-pyran-4-yl)-3-methyl-5H-pyrrolo[2,3-b]pyrazin-2-yl]-1,3-dihydrospiro[indene-2,4′-piperidin]-3-amine]"
18,≤ 0.05,"Cc1nc2c(ccn2-c2cccc3ncccc23)nc1N1CCC2(CC1)Cc1ccccc1[C@H]2N [Example 194, (3S)-1′-[3-methyl-5-(quinolin-5-yl)-5H-pyrrolo[2,3-b]pyrazin-2-yl]-1,3-dihydrospiro[indene-2,4′-piperidin]-3-amine]"
19,≤ 0.05,Cc1nc(N2CCCc3ncccc32)cnc1N1CCC2(CC1)Cc1ccccc1[C@H]2N [Example 196]
20,≤ 0.05,Cc1nc(N2CCC3(CC2)Cc2ccccc2[C@H]3N)cnc1N1CCCc2ncccc21 [Example 197]
21,> 10,N[C@@H]1c2ccccc2CC12CCN(c1cnc(OCc3cccc4cccnc34)cn1)CC2 [Example 198]
22,≤ 0.05,Cc1c(NCc2cccnc2)ccnc1N1CCC2(CC1)Cc1ccccc1[C@H]2N [Example 199]
23,≤ 0.05,Cn1nccc1-c1cc(N2CCC3(CC2)Cc2ccccc2[C@H]3N)cn2ccnc12 [Example 201]

row,IC50 [µM],SMILES
1,≤ 0.05,N[C@@H]1c2ccccc2CC12CCN(c1cc(OC(F)F)c3nccn3c1)CC2 [Example 202]
2,≤ 0.05,Cc1nc2c(cnn2-c2cccc3c(=O)n(C)ccc23)nc1N1CCC2(CC1)Oc1ccccc1[C@H]2N [Example 203]
3,≤ 0.05,N[C@@H]1c2ccccc2CC12CCN(C(=O)c1csc(N3CCCCC3)n1)CC2 [Example 204]
4,0.05 to 1,Cn1c(N2CCC3(CC2)Cc2ccccc2[C@H]3N)ncc(N2CCCc3ccccc32)c1=O [Example 205]
5,≤ 0.05,Cn1c(N2CCC3(CC2)Cc2ccccc2[C@H]3N)ccc(N2CCCc3ccccc32)c1=O [Example 206]
6,1 to 10,Cc1c(N2CCCc3ccccc32)nc2sc(N3CCC4(CC3)Cc3ccccc3[C@H]4N)nn12 [Example 207]
7,1 to 10,Cc1nc2c(N3CCCCC3)n[nH]c2nc1N1CCC2(CC1)Oc1ccc(F)cc1[C@H]2N [Example 208]
8,1 to 10,N[C@@H]1c2ccccc2CC12CCN(c1ccc3c(N4CCCCC4)n[nH]c3n1)CC2 [Example 209]
9,> 10,N[C@@H]1c2ccccc2CC12CCN(c1ncc(N3CCCc4ccccc43)c(=O)[nH]1)CC2 [Example 210]
10,≤ 0.05,Cc1nc(N2CCC3(CC2)Cc2ccccc2[C@H]3N)c(C)nc1Sc1ccnc(N)c1Cl [Example 215]
11,0.05 to 1,Nc1nccc(Sc2ccc(N3CCC4(CC3)Oc3ccccc3[C@H]4N)cn2)c1Cl [Example 216]
12,≤ 0.05,Nc1nccc(Sc2ccc(N3CCC4(CC3)Cc3cc(F)ccc3[C@H]4N)cn2)c1Cl [Example 217]
13,≤ 0.05,Nc1nccc(Sc2ccc(N3CCC4(CC3)Cc3ccc(F)cc3[C@H]4N)cn2)c1Cl [Example 218]
14,≤ 0.05,Cc1cc(N2CCC3(CC2)Cc2ccccc2[C@H]3N)cnc1Sc1ccnc(N)c1Cl [Example 219]
15,≤ 0.05,N#Cc1nc(Sc2ccnc(Cl)c2Cl)cnc1N1CCC2(CC1)Cc1ccccc1[C@H]2N [Example 220]
16,≤ 0.05,Nc1nccc(Sc2cnc3c(n2)OC[C@H]2C[C@@]4(CCN32)Oc2ccccc2[C@@H]4N)c1Cl [Example 221]
17,≤ 0.05,Nc1nccc(Sc2cnc3c(n2)OC[C@H]2C[C@@]4(CCN32)Oc2ccccc2[C@H]4N)c1Cl [Example 222]
18,≤ 0.05,Cc1c(Sc2ccnc(N)c2Cl)nc2sc(N3CCC4(CC3)Cc3ccccc3[C@H]4N)nn12 [Example 223]
19,0.05 to 1,Nc1nccc(Sc2ccc(N3CCC4(CC3)Oc3cc(F)ccc3[C@H]4N)cn2)c1Cl [Example 224]
20,> 10,Nc1nccc(Sc2ccc(N3CCC4(CC3)Oc3ccc(F)cc3[C@H]4N)cn2)c1Cl [Example 225]
21,> 10,CNC(=O)c1cc(C)nc(N2CCC3(CC2)Cc2ccccc2[C@H]3N)c1 [Example 228]
22,≤ 0.05,N[C@@H]1c2ccccc2CC12CCN(C1=Nc3ncc(C4CC4)cc3C1)CC2 [Example 229]
23,1 to 10,N[C@@H]1c2ccccc2CC12CCN(c1cc(C(F)(F)F)c3nncn3n1)CC2 [Example 230]

row,SMILES,IC50 [µM]
1,"N[C@@H]1c2ccccc2CC12CCN(c1cnc(SC3CCCC3)cn1)CC2 [Example 168, (3S)-1′-[5-(cyclopentylsulfanyl)pyrazin-2-yl]-1,3-dihydrospiro[indene-2,4′-piperidin]-3-amine]",≤ 0.05
2,"CCSc1cnc(N2CCC3(CC2)Cc2ccccc2[C@H]3N)cn1 [Example 170, (3S)-1′-[5-(ethylsulfanyl)pyrazin-2-yl]-1,3-dihydrospiro[indene-2,4′-piperidin]-3-amine]",0.05 to 1
3,"N[C@@H]1c2ccccc2CC12CCN(c1cnc(SC3CCOCC3)cn1)CC2 [Example 185, (S)-1′-(5-((tetrahydro-2H-pyran-4-yl)thio)pyrazin-2-yl)-1,3-dihydrospiro[indene-2,4′-piperidin]-1-amine]",1 to 10
4,"Cc1nc2c(N3CCC(F)(F)CC3)n[nH]c2nc1N1CCC2(CC1)Cc1ccccc1[C@H]2N [Example 186, (3S)-1′-[3-(4,4-difluoropiperidin-1-yl)-5-methyl-1H-pyrazolo[3,4-b]pyrazin-6-yl]-1,3-dihydrospiro[indene-2,4′-piperidin]-3-amine]",≤ 0.05
5,"N[C@@H]1c2ccccc2CC12CCN(c1ncnc3c1cnn3-c1ccccc1)CC2 [Example 195, (3S)-1′-{1-phenyl-1Hpyrazolo[3,4-d]pyrimidin-4-yl}-1,3-dihydrospiro[indene-2,4′-piperidin]-3-amine]",≤ 0.05
6,"N[C@@H]1c2ccccc2CC12CCN(c1ncc(N3CCCc4ncccc43)nc1CO)CC2 [Example 211, {3-[(3S)-3-amino-1,3-dihydrospiro[indene-2,4′-piperidin]-1′-yl]-6-(1,2,3,4-tetrahydro-1,5-naphthyridin-1-yl)pyrazin-2-yl}methanol]",0.05 to 1
7,"N[C@@H]1c2ccccc2CC12CCN(c1ncc(N3CCCc4ccccc43)nc1CO)CC2 [Example 212, {3-[(3S)-3-amino-1,3-dihydrospiro[indene-2,4′-piperidin]-1′-yl]-6-(1,2,3,4-tetrahydroquinolin-1-yl)pyrazin-2-yl}methanol]",≤ 0.05
8,"N[C@@H]1c2ccccc2CC12CCN(c1ncc(N3CCc4ccccc43)nc1CO)CC2 [Example 213, (S)-(3-(1-amino-1,3-dihydrospiro[indene-2,4′-piperidin]-1′-yl)-6-(indolin-1-yl)pyrazin-2-yl) methanol]",0.05 to 1
9,"N[C@@H]1c2ccccc2CC12CCN(c1ncc(N3CCCCc4ccccc43)nc1CO)CC2 [Example 214, (S)-(3-(1-amino-1,3-dihydrospiro[indene-2,4′-piperidin]-1′-yl)-6-(2,3,4,5-tetrahydro-1H-benzo[b]azepin-1-yl)pyrazin-2-yl)methanol]",≤ 0.05
